Tested on: 200 kinds of cytokines
Assay: Fold change of 200 cytokines in homogenized wound tissue
Assay type: in vivo, Balb/c mice
Text: To quantify the physiological condition of the wound tissues, we measured the concentrations of 200 kinds of cytokines (Table. 1) from the supernatant of homogenized tissue solution. Cytokines are small secreted proteins released by cells and have specific effect on the interactions and communications between cells (25).
To initiate the formation of a skin wound, five groups (n=5) of eight-week old female Balb/c mice (obtained from Harlan Laboratories, Indianapolis, Ind., USA) were disinfected with ethanol (70%) and shaved on the middle of the back (approximately a one-inch by one-inch square region around the injection site) one day prior to infection as described from a reported procedure (3). To prepare the bacterial inoculum, an aliquot of overnight culture of MRSA USA300 was transferred to fresh Tryptic soy broth and shaken at 37° C. until an OD600 value of ˜1.0 was achieved. The cells were centrifuged, washed once with PBS, re-centrifuged, and then re-suspended in PBS. Mice subsequently received an intradermal injection (40 μL) containing 2.40×10^9 CFU/mL MRSA USA300.
One group of mice was left untreated (negative control). Each group of mice receiving a particular treatment regimen was housed separately in a ventilated cage with appropriate bedding, food, and water. […] Mice were treated twice daily (once every 12 hours) for three days, before they were humanely euthanized via CO2 asphyxiation 12 hours after the last dose was administered. The region around the skin wound was lightly swabbed with ethanol (70%) and excised. The tissue was subsequently homogenized in PBS. The homogenized tissue was then serially diluted in PBS before plating onto mannitol salt agar plates. Plates were incubated for at least 19 hours at 37° C. before viable MRSA CFU/mL were counted for each group. Outlier was removed based upon the Dixon Q Test.

## CC(=O)O[C@H]1C[C@@]2(C)[C@@H](C[C@@H](O)[C@H]3[C@@]4(C)CC[C@@H](O)[C@@H](C)[C@@H]4CC[C@@]32C)/C1=C(\CCC=C(C)C)C(=O)O [fusidic acid]
Cytokine MBL-2, group mean, wound tissue of MRSA-infected mice
  fold change of MBL-2 (mean): 0.0893
Cytokine Meteorin, group mean, wound tissue of MRSA-infected mice
  fold change of Meteorin (mean): 0.3361
Cytokine NOV, group mean, wound tissue of MRSA-infected mice
  fold change of NOV (mean): −0.2053
Cytokine Nope, group mean, wound tissue of MRSA-infected mice
  fold change of Nope (mean): 0.0534
Cytokine OX40 Ligand, group mean, wound tissue of MRSA-infected mice
  fold change of OX40 Ligand (mean): −0.1454
Cytokine Osteoactivin, group mean, wound tissue of MRSA-infected mice
  fold change of Osteoactivin (mean): 1.1132
Cytokine P-Cadherin, group mean, wound tissue of MRSA-infected mice
  fold change of P-Cadherin (mean): 0.5883
Cytokine Periostin, group mean, wound tissue of MRSA-infected mice
  fold change of Periostin (mean): 0.1651
Cytokine PlGF-2, group mean, wound tissue of MRSA-infected mice
  fold change of PlGF-2 (mean): −0.0798
Cytokine Progranulin, group mean, wound tissue of MRSA-infected mice
  fold change of Progranulin (mean): −0.4424
Cytokine Prostasin, group mean, wound tissue of MRSA-infected mice
  fold change of Prostasin (mean): 0.1030
Cytokine Renin 1, group mean, wound tissue of MRSA-infected mice
  fold change of Renin 1 (mean): −0.4138
Cytokine TIM-1, group mean, wound tissue of MRSA-infected mice
  fold change of TIM-1 (mean): −0.0806
Cytokine Testican 3, group mean, wound tissue of MRSA-infected mice
  fold change of Testican 3 (mean): −0.4097
Cytokine Tryptase ε, group mean, wound tissue of MRSA-infected mice
  fold change of Tryptase ε (mean): −0.0627
Fusidic acid alone
  share of 200 cytokines with negative fold change vs untreated: around 50%
mean, wound tissue
  fold change of 4-1BB: −0.0924
  fold change of 6Ckine: 0.0930
  fold change of ACE: −0.3271
  fold change of ADAMTS1: 0.2350
  fold change of ALK-1: −0.0491
  fold change of ANG-3: 0.0313
  fold change of ANGPTL3: −0.2231
  fold change of AR: 0.6274
  fold change of Activin A: 0.2305
  fold change of Adiponen: 0.0147
  fold change of Artemin: 0.4218
  fold change of Axl: 0.0523
  fold change of B7-1: −0.0561
  fold change of BAFF R: 0.0687
  fold change of BLC: −0.3200
  fold change of BTC: 3.8576
  fold change of C5a: 0.1215
  fold change of CCL6: −0.4027
  fold change of CCL28: 1.0791
  fold change of CD6: 0.3476
  fold change of CD27: 0.2818
  fold change of CD27L: −0.0491
  fold change of CD30: 0.0137
  fold change of CD30L: −0.0682
  fold change of CD36: 0.0674
  fold change of CD40: 0.3337
  fold change of CD40L: 0.0244
  fold change of CD48: −0.0498
  fold change of CRP: −0.0863
  fold change of CT-1: −0.0581
  fold change of CTLA4: 0.2149
  fold change of CXCL16: 0.2447
  fold change of Chemerin: 0.1948
  fold change of Chordin: −0.0599
  fold change of Clusterin: 0.2455
  fold change of Cystatin C: −0.0271
  fold change of DLL4: −0.0252
  fold change of Decorin: −0.0222
  fold change of Dkk-1: 0.1157
  fold change of Dtk: 0.1217
  fold change of E-Cadherin: 0.1848
  fold change of E-selectin: −0.2004
  fold change of EDAR: −0.4592
  fold change of EGF: 0.0517
  fold change of Endocan: 0.0559
  fold change of Endoglin: 0.4267
  fold change of Eotaxin: 0.8019
  fold change of Eotaxin-2: 0.0292
  fold change of Epigen: −0.0490
  fold change of Epiregulin: −0.2220
  fold change of Fas: 0.0163
  fold change of Fas L: −0.4112
  fold change of Fcg RIIB: 0.0602
  fold change of Fetuin A: −0.6614
  fold change of Flt-3L: 0.1619
  fold change of Fractalkine: −0.2364
  fold change of G-CSF: 0.1394
  fold change of GITR: 0.3966
  fold change of GITR L: 0.2327
  fold change of GM-CSF: −0.1708
  fold change of Galectin-1: 0.0284
  fold change of Galectin-3: 0.0624
  fold change of Galectin-7: 0.7990
  fold change of Gas 1: 0.0715
  fold change of Gas 6: −0.0661
  fold change of Granzyme B: 0.5603
  fold change of Gremlin: 4.9707
  fold change of H60: 0.2171
  fold change of HAI-1: 0.2271
  fold change of HGF: 0.2701
  fold change of HGF R: 0.0292
  fold change of I-TAC: 0.3744
  fold change of ICAM-1: 1.5512
  fold change of IFNg: −0.0599
  fold change of IFNg R1: 0.0709
  fold change of IGF-1: −0.4445
  fold change of IGFBP-2: −0.0879
  fold change of IGFBP-3: −0.2120
  fold change of IGFBP-5: −0.0782
  fold change of IGFBP-6: −0.2897
  fold change of IL-1 R4: −0.0208
  fold change of IL-1a: −0.0503
  fold change of IL-1b: −0.2158
  fold change of IL-1ra: 0.3851
  fold change of IL-2: 0.0606
  fold change of IL-2 Ra: 0.1879
  fold change of IL-3: −0.1398
  fold change of IL-3 Rb: 0.0789
  fold change of IL-4: −0.0096
  fold change of IL-5: −0.0953
  fold change of IL-6: 0.2682
  fold change of IL-7: 0.1116
  fold change of IL-7 Ra: −0.7276
  fold change of IL-9: 0.1408
  fold change of IL-10: −0.0351
  fold change of IL-12p40: 0.0324
  fold change of IL-12p70: 0.0029
  fold change of IL-13: −0.5654
  fold change of IL-15: −0.0506
  fold change of IL-17: 0.2684
  fold change of IL-17B: −0.0513
  fold change of IL-17B R: 0.4884
  fold change of IL-17E: −0.1800
  fold change of IL-17F: 0.2592
  fold change of IL-20: 0.0953
  fold change of IL-21: −0.4052
  fold change of IL-22: −0.0487
  fold change of IL-23: 0.2627
  fold change of IL-28: −0.1588
  fold change of IL-33: 0.3416
  fold change of JAM-A: 0.3062
  fold change of KC: 0.0909
  fold change of Kremen-1: 0.2672
  fold change of L-Selectin: −0.3559
  fold change of LIX: −0.0313
  fold change of LOX-1: 0.0568
  fold change of Leptin: −0.1199
  fold change of Leptin R: 0.1134
  fold change of Limitin: −0.1844
  fold change of Lipocalin-2: −0.0695
  fold change of Lungkine: −0.0819
  fold change of Lymphotactin: 0.0908
  fold change of MCP-1: 0.0071
  fold change of MCP-5: −0.0915
  fold change of MCSF: −0.5503
  fold change of MDC: −0.0764
  fold change of MFG-E8: 0.4647
  fold change of MIG: 0.5378
  fold change of MIP-1a: −0.3165
  fold change of MIP-1b: −0.5769
  fold change of MIP-1g: 0.0304
  fold change of MIP-2: −0.0070
  fold change of MIP-3a: 0.3460
  fold change of MIP-3b: 0.0690
  fold change of MMP-2: 0.1026
  fold change of MMP-3: −0.1230
  fold change of MMP-10: 0.3470
  fold change of MadCAM-1: −0.0787
  fold change of Marapsin: −0.1703
  fold change of Neprilysin: 0.5936
  fold change of OPG: 0.9914
  fold change of OPN: 0.8216
  fold change of P-selectin: −0.2374
  fold change of PDGF-AA: 0.4578
  fold change of PF4: −0.6256
  fold change of Pentraxin 3: −0.6735
  fold change of Persephin: 0.5348
  fold change of Pro-MMP-9: 0.0197
  fold change of Prolactin: 0.4580
  fold change of RAGE: 0.1727
  fold change of RANTES: −0.2545
  fold change of Resistin: 0.2752
  fold change of SCF: 0.1498
  fold change of SDF-1a: 0.1707
  fold change of SLAM: 0.1871
  fold change of Shh-N: −0.0849
  fold change of TACI: 0.4640
  fold change of TARC: 0.3205
  fold change of TCA-3: −0.1264
  fold change of TCK-1: −0.0185
  fold change of TECK: 0.4529
  fold change of TGFb1: 0.0743
  fold change of TNF RI: −0.1306
  fold change of TNF RII: −0.2811
  fold change of TNFα: −0.4306
  fold change of TPO: 0.2663
  fold change of TRANCE: 0.0310
  fold change of TREM-1: 0.0981
  fold change of TROY: 0.0517
  fold change of TSLP: −0.0086
  fold change of TWEAK: −0.0621
  fold change of TWEAK R: −0.2341
  fold change of TremL1: −0.0440
  fold change of VCAM-1: −0.0283
  fold change of VEGF: 0.0403
  fold change of VEGF R1: 0.1580
  fold change of VEGF R3: 0.1061
  fold change of VEGF-B: 0.0230
  fold change of VEGF-D: 0.0367
  fold change of bFGF: −0.4981
  fold change of gp130: 0.5867
  fold change of sFRP-3: 0.0607

Reference: US20200306295A1, “METHOD AND DEVICE FOR ANNIHILATION OF Staphylococcus aureus” (priority 2017, published 2020)
